Results from patent publication US9861616B2, “Methods for treating respiratory diseases and formulations therefor” (priority 2013, dated 2018).
In brackets after ≈: the same amount, converted by molar mass.

What was measured:
P. aeruginosa (PA) = test: MIC by microdilution, 36 clinical and laboratory strains with known efflux phenotype; assay type: cell-based
Protocol: (§1) MICs of 36 clinical and laboratory strains of PA with known efflux phenotype are measured by microdilution in cation-adjusted Muller-Hinton broth (CA-MHB) or in RPMI medium (commonly used in eukaryotic cell culture). Phe-Arg-β-naphthylamide (PaβN, 50 mg/L) and EGTA 5 mM are used to inhibit efflux pumps and alter OM integrity, respectively. P. aeruginosa strain ATCC PAO1 is used as reference. PA12 is a clinical strain overexpressing the 4 main efflux systems (MexAB, MexCD, MexEF, MexXY), PA403 is a laboratory strain deleted in the genes coding for the 4 efflux systems. A series of reference strains or of clinical isolates for which the expression of genes coding for efflux pumps is known is also used for MICs determinations. MICs are measured by microdilution in MH broth or in RPMI medium (used for eukaryotic cells culture) supplemented with 10% of fetal calf serum, or in MH broth supplemented by increasing amounts of serum. EGTA (5 mM) was used as a chelating agent (disrupting outer membrane integrity) and PaβN (50 mg/L) as an unspecific efflux inhibitor.

P. aeruginosa PA12 = test: MIC by microdilution with PaβN or EGTA, clinical isolate overexpressing efflux pumps; assay type: cell-based; settings: Pseudomonas aeruginosa
Protocol: as §1

IL-8 (CXCL8) release = test: LPS-induced IL-8 (CXCL8) release in PMA-differentiated U937 cells (ELISA); assay type: cell-based, human
Protocol: Effects of macrolides on lipopolysaccharide (LPS)-induced CXCL8 release in PMA-differentiated U937 cells. […] LPS-induced CXCL8 release was evaluated by ELISA. Values represent means of three experiments±SEM. ^##p<0.01 (vs. non-treatment control), *p<0.05, **p<0.01 (vs. treatment with LPS only).
(§2) The human monocytic cell line U937 was obtained from the American Type Culture Collection (ATCC, Rockville, Md.). PBMCs from COPD patients were obtained from Brompton hospital and separated by AccuSPIN (Sigma-Aldrich). Cells were cultured in complete growth medium (RPMI 1640) (Sigma-Aldrich) supplemented with 10% fetal bovine serum (FBS) and 1% L-glutamine at 37° C. in a humidified atmosphere with 5% CO2. U937 cells were differentiated into adherent macrophage-like morphology by exposure to PMA (50 ng/mL) for 48 hrs in complete growth medium. Cell viability was assessed microscopically by trypan blue staining. Cell toxicity was determined by MTT assay as needed. This study was approved by the ethics committee of the Royal Brompton Hospitals, and all subjects gave written informed consent.
TNFα and IL-8 concentrations in the supernatant of cell cultures were determined by sandwich ELISA according to the manufacturer's instructions (R&D Systems Europe, Abingdon, UK).
(§3) The results were expressed as the mean±SEM. Comparisons of data in two groups were performed using the Student's t test or the Wilcoxon signed rank test. Multiple comparisons were made by one-way ANOVA with post hoc test (Dunnett's) as appropriate. The difference was considered significant at p<0.05. IC50 values (50% inhibitory concentration) for macrolides for production of cytokines or MMP9 were calculated using Prism 4.0 (GraphPad Software Inc., San Diego, Calif.).

MMP9 activity = test: PMA-induced MMP9 activation in U937 cells (gelatin zymography); assay type: cell-based, human
Protocol: Effects of macrolides on phorbol 12-myristate 13-acetate (PMA)-induced MMP9 activation in U937 cells. […] After 48 h supernatants were collected for zymography. MMP9 enzyme activity was measured by gelatin zymography. Data are expressed relative to standard.
as §2
MMP9 enzyme activity was measured by gelatin zymography. Cell culture supernatants were diluted with equal amount of Laemli sample buffer (Bio-Rad, Hertfordshire, UK) and loaded on a Novex® 10% Zymogram (Gelatin) gel (Invitrogen Ltd, Paisley, UK). After electrophoresis, gels were incubated and rinsed with Novex® zymogram renaturing buffer (Invitrogen) for 30 min at room temperature. The gels were then rinsed in Novex® zymogram developing buffer (Invitrogen) for 30 min at room temperature prior to overnight incubation in the developing buffer at 37° C. After incubation, the gels were stained using a Colloidal Blue Staining Kit (Invitrogen) to visualize the zymogen bands.
as §3

CC[C@H]1OC(=O)[C@H](C)[C@@H](O[C@H]2C[C@@](C)(OC)[C@@H](O)[C@H](C)O2)[C@H](C)[C@@H](O[C@@H]2O[C@H](C)C[C@H](N(C)C)[C@H]2O)[C@](C)(O)C[C@@H](C)CN(C)[C@H](C)[C@@H](O)[C@]1(C)O [AZM, azithromycin]
MIC (P. aeruginosa (PA); strain 1, efflux AB+, MHB): 128 µg/mL (≈ 171 µM)
MIC (P. aeruginosa (PA); strain 1, efflux AB+, RPMI): 4 µg/mL (≈ 5.34 µM)
MIC (P. aeruginosa (PA); strain 2, efflux CD+, MHB): 512 µg/mL (≈ 684 µM)
MIC (P. aeruginosa (PA); strain 2, efflux CD+, RPMI): 4 µg/mL (≈ 5.34 µM)
MIC (P. aeruginosa (PA); strain 3, efflux EF+, MHB): 64 µg/mL (≈ 85.4 µM)
MIC (P. aeruginosa (PA); strain 3, efflux EF+, RPMI): 2 µg/mL (≈ 2.67 µM)
MIC (P. aeruginosa (PA); strain 4, efflux XY+, MHB): 256 µg/mL (≈ 342 µM)
MIC (P. aeruginosa (PA); strain 4, efflux XY+, RPMI): 2 µg/mL (≈ 2.67 µM)
MIC (P. aeruginosa (PA); strain 11, efflux AB + CD+, MHB): 128 µg/mL
MIC (P. aeruginosa (PA); strain 11, efflux AB + CD+, RPMI): 2 µg/mL
MIC (P. aeruginosa (PA); strain 12, efflux AB + CD + EF + XY+, MHB): 256 µg/mL
MIC (P. aeruginosa (PA); strain 12, efflux AB + CD + EF + XY+, RPMI): 2 µg/mL
MIC (P. aeruginosa (PA); strain 16, efflux AB + XY+, MHB): 256 µg/mL
MIC (P. aeruginosa (PA); strain 16, efflux AB + XY+, RPMI): 4 µg/mL
MIC (P. aeruginosa (PA); strain 21, efflux AB+, MHB): 256 µg/mL (≈ 342 µM)
MIC (P. aeruginosa (PA); strain 21, efflux AB+, RPMI): 2 µg/mL (≈ 2.67 µM)
MIC (P. aeruginosa (PA); strain 22, efflux XY+, MHB): 256 µg/mL (≈ 342 µM)
MIC (P. aeruginosa (PA); strain 22, efflux XY+, RPMI): 2 µg/mL (≈ 2.67 µM)
MIC (P. aeruginosa (PA); strain 40, efflux EF+, MHB): 256 µg/mL (≈ 342 µM)
MIC (P. aeruginosa (PA); strain 40, efflux EF+, RPMI): 2 µg/mL (≈ 2.67 µM)
MIC (P. aeruginosa (PA); strain 41, efflux CD+, MHB): 256 µg/mL (≈ 342 µM)
MIC (P. aeruginosa (PA); strain 41, efflux CD+, RPMI): 2 µg/mL (≈ 2.67 µM)
MIC (P. aeruginosa (PA); strain 48, efflux CD + EF + XY+, MHB): 256 µg/mL
MIC (P. aeruginosa (PA); strain 48, efflux CD + EF + XY+, RPMI): 2 µg/mL
MIC (P. aeruginosa (PA); strain 49, efflux CD + EF + XY+, MHB): 256 µg/mL
MIC (P. aeruginosa (PA); strain 49, efflux CD + EF + XY+, RPMI): 2 µg/mL
MIC (P. aeruginosa (PA); strain 63, efflux AB + EF + XY+, MHB): 256 µg/mL
MIC (P. aeruginosa (PA); strain 63, efflux AB + EF + XY+, RPMI): 2 µg/mL
MIC (P. aeruginosa (PA); strain 68, efflux AB + XY+, MHB): 256 µg/mL
MIC (P. aeruginosa (PA); strain 68, efflux AB + XY+, RPMI): 2 µg/mL
MIC (P. aeruginosa (PA); strain 133, efflux EF + XY+, MHB): 256 µg/mL
MIC (P. aeruginosa (PA); strain 133, efflux EF + XY+, RPMI): 4 µg/mL
MIC (P. aeruginosa (PA); strain 156, efflux EF + XY+, MHB): 512 µg/mL
MIC (P. aeruginosa (PA); strain 156, efflux EF + XY+, RPMI): 4 µg/mL
MIC (P. aeruginosa (PA); strain 168B, efflux CD + XY+, MHB): 512 µg/mL
MIC (P. aeruginosa (PA); strain 168B, efflux CD + XY+, RPMI): 4 µg/mL
MIC (P. aeruginosa (PA); strain 207, efflux AB + EF + XY+, MHB): 512 µg/mL
MIC (P. aeruginosa (PA); strain 207, efflux AB + EF + XY+, RPMI): 4 µg/mL
MIC (P. aeruginosa (PA); strain 266B, efflux AB + CD+, MHB): 256 µg/mL
MIC (P. aeruginosa (PA); strain 266B, efflux AB + CD+, RPMI): 2 µg/mL
MIC (P. aeruginosa (PA); strain 333A, efflux AB + EF+, MHB): 256 µg/mL
MIC (P. aeruginosa (PA); strain 333A, efflux AB + EF+, RPMI): 2 µg/mL
MIC (P. aeruginosa (PA); strain 335, efflux AB + EF+, MHB): 512 µg/mL
MIC (P. aeruginosa (PA); strain 335, efflux AB + EF+, RPMI): 4 µg/mL
MIC (P. aeruginosa (PA); strain 391, efflux EF−, MHB): 128 µg/mL (≈ 171 µM)
MIC (P. aeruginosa (PA); strain 391, efflux EF−, RPMI): 2 µg/mL (≈ 2.67 µM)
MIC (P. aeruginosa (PA); strain 392, efflux CD−, MHB): 128 µg/mL (≈ 171 µM)
MIC (P. aeruginosa (PA); strain 392, efflux CD−, RPMI): 2 µg/mL (≈ 2.67 µM)
MIC (P. aeruginosa (PA); strain 394, efflux XY−, MHB): 256 µg/mL (≈ 342 µM)
MIC (P. aeruginosa (PA); strain 394, efflux XY−, RPMI): 4 µg/mL (≈ 5.34 µM)
MIC (P. aeruginosa (PA); strain 395, efflux HI−, MHB): 128 µg/mL (≈ 171 µM)
MIC (P. aeruginosa (PA); strain 395, efflux HI−, RPMI): 2 µg/mL (≈ 2.67 µM)
MIC (P. aeruginosa (PA); strain 396, ompH−, MHB): 64 µg/mL (≈ 85.4 µM)
MIC (P. aeruginosa (PA); strain 396, ompH−, RPMI): 2 µg/mL (≈ 2.67 µM)
MIC (P. aeruginosa (PA); strain 397, efflux AB−, MHB): 8 µg/mL (≈ 10.7 µM)
MIC (P. aeruginosa (PA); strain 397, efflux AB−, RPMI): 1 µg/mL (≈ 1.34 µM)
MIC (P. aeruginosa (PA); strain 398, efflux CD−, MHB): 16 µg/mL (≈ 21.4 µM)
MIC (P. aeruginosa (PA); strain 398, efflux CD−, RPMI): 1 µg/mL (≈ 1.34 µM)
MIC (P. aeruginosa (PA); strain 399, efflux AB − EF−, MHB): 16 µg/mL (≈ 21.4 µM)
MIC (P. aeruginosa (PA); strain 399, efflux AB − EF−, RPMI): 2 µg/mL (≈ 2.67 µM)
MIC (P. aeruginosa (PA); strain 400, efflux XY−, MHB): 8 µg/mL (≈ 10.7 µM)
MIC (P. aeruginosa (PA); strain 400, efflux XY−, RPMI): 2 µg/mL (≈ 2.67 µM)
MIC (P. aeruginosa (PA); strain 401, ompH−, MHB): 8 µg/mL (≈ 10.7 µM)
MIC (P. aeruginosa (PA); strain 401, ompH−, RPMI): 2 µg/mL (≈ 2.67 µM)
MIC (P. aeruginosa (PA); strain 403, efflux AB − CD − EF − XY−, MHB): 8 µg/mL (≈ 10.7 µM)
MIC (P. aeruginosa (PA); strain 403, efflux AB − CD − EF − XY−, RPMI): 2 µg/mL (≈ 2.67 µM)
MIC (P. aeruginosa (PA); strain 405, efflux AB − CD − EF − XY−, MHB): 8 µg/mL (≈ 10.7 µM)
MIC (P. aeruginosa (PA); strain 405, efflux AB − CD − EF − XY−, RPMI): 2 µg/mL (≈ 2.67 µM)
MIC (P. aeruginosa (PA); strain 434, efflux AB + CD + XY+, MHB): 512 µg/mL
MIC (P. aeruginosa (PA); strain 434, efflux AB + CD + XY+, RPMI): 4 µg/mL
MIC (P. aeruginosa (PA); strain PAO1, REFERENCE, MHB): 256 µg/mL (≈ 342 µM)
MIC (P. aeruginosa (PA); strain PAO1, REFERENCE, RPMI): 4 µg/mL (≈ 5.34 µM)
MIC (P. aeruginosa PA12; PA12, PA12, CA-MHB, EGTA 5 mM): 256 µg/mL (≈ 342 µM)
MIC (P. aeruginosa PA12; PA12, PA12, CA-MHB, PaβN 50 mg/L): 2 µg/mL (≈ 2.67 µM)
MIC (P. aeruginosa PA12; PA12, PA12, CA-MHB, control conditions (CT)): 256 µg/mL (≈ 342 µM)
MIC (P. aeruginosa PA12; PA12, PA12, RPMI, EGTA 5 mM): 0.5 µg/mL (≈ 0.668 µM)
MIC (P. aeruginosa PA12; PA12, PA12, RPMI, PaβN 50 mg/L): 2 µg/mL (≈ 2.67 µM)
MIC (P. aeruginosa PA12; PA12, PA12, RPMI, control conditions (CT)): 2 µg/mL (≈ 2.67 µM)
effect on IL-8 production (IL-8 (CXCL8) release; 33 to 333 μM (FIG. 4)): did not inhibit
IC50 (IL-8 (CXCL8) release; Homo sapiens, U-937, U937 cells, at 333 μM, read-out: IC50, LPS-induced IL-8 release: NE at 333 μM): > 333 µM
inhibitory effect on MMP9 activity, lower than CEM-101 (MMP9 activity): 10 fold
IC50 (MMP9 activity; Homo sapiens, U-937, read-out: IC50, PMA-induced MMP9 activation): 212 µM
